“Also recorded” adds a separate entry of the source.
Legend:
[1] = tested on: Mouse melanoma cell line B16-F10; assay: Mouse melanoma cell proliferation (cell count after 48 hours); type: cell-based
Text: (§1) Mouse melanoma cell line B16-F10 is a commonly used mammalian cells for melanogenesis and melanocyte studies. […] MoTP. […] The two graphs on top are cell number per 0.5 cubic mm. The Y axis in the lower two graphs is absorbance of 490 nm visible light by melanin. Higher absorbance means more melanin.
(§2) In this experiment, we first seeded approximately the same number of cells in each well of the 24-well plate supplied with fresh complete growth medium with different skin lightening compound. After 48 hours of incubation, we counted the cell numbers to evaluate the cell proliferation and lysed the cells from additional identically set-up wells and measured the total amount of melanin in treated melanoma.

zebrafish embryos [2] = conditions: embryos incubated 24 to 72 hpf
Protocol: Zebrafish embryos were incubated in compounds from 24 hpf (hours post fertilization) to 72 hpf.
(§3) The testing protocols for these compounds are as follows: • a. To test the inhibition of pigment formation, the zebrafish embryos were treated with the drugs from 24 to 72 hours post-fertilization (hpf). The embryos were monitored and imaged throughout their development to track the development of melanin pigment relative to a control group to which water was administered (Protocol 1). • b. […] The embryos were again monitored and imaged throughout their development relative to a control group to which water was administered (Protocol 2). • c. Additionally, to test the ability of the pigment to recover after being treated with our drugs, all embryos were treated at 24 hpf with the chemicals until the 68 hpf or 72 hpf time period, then washed with water to remove the treatment. The embryos were again monitored and imaged throughout their development relative to a control group to which water was administered (Protocol 3). Comparison of Skin-Lightening Compounds
The black pigment (or melanin) is very easy to observe in zebrafish. In brief, adult zebrafish are taken to breed embryos. Morphologically normal embryos of 24 hours post fertilization (hpf) stage will be selected for incubation in the drugs from 24 to 72 hours. During the incubation, the embryos are monitored and imaged (see FIG. 1) to track the development of melanin. […] To broaden the comparison with other skin-lightening products, this project can also test other compounds, kojic acid, gallic acid, (2-Morpholinobutyl)-4-thiophenol/MoTP and Haginin/phenoxidiol. […] In the meantime, the whole organism context also allows us to examine the toxicological profile, if any, of these compounds. The same protocol is also used for the experiments using the melanoma forming zebrafish.

[3] = tested on: purified tyrosinase from mushroom; assay: In vitro tyrosinase assay (L-tyrosine to DOPAchrome, absorbance 490 nm); type: biochemical; conditions: absorbance at 490 nm at 20', 60' and 120' of reaction
Text: The assay is set up by mixing purified tyrosinase from mushroom with L-tyrosine with or without test chemical. Active tyrosinase will turn L-tyrosine into DOPAchrome which is orange color. The absorbance at 490 nm which reflects the amount of DOPAchrome and thus the tyrosinase activity was taken at 20′, 60′ and 120′ of reaction.
Most of the current skin-lightening compounds reduce pigment by inhibiting the melanin synthesis enzyme called tyrosinase (FIG. 5). […] The assay is usually done by mixing purified tyrosinase from mushroom with L-tyrosine, which is the substrate of tyrosinase, and with or without test chemical. Reaction with active tyrosinase will quickly turn L-tyrosine into a color product called dopachrome which is an intermediate product in the melanin synthesis pathway. The amount of dopachrome can be measured by a spectrophotometer at A490 nm visible light.

zebrafish embryos [4] = assay: Reduction of existing pigment in zebrafish embryos (Protocol 2); type: in vivo; conditions: embryos incubated from 48 hpf to 68 hpf
Protocol: Embryos were incubated in compounds from 48 hpf when some pigments already formed to 68 hpf.
as §3
Thus, we compared the compound effect on existing pigment using older embryos at 48 hpf. The embryos were again monitored and imaged throughout their development according to Protocol 2.

[5] = tested on: Mouse melanoma cell line B16-F10; assay: Melanin content of mouse melanoma cells (absorbance 490 nm); type: cell-based; conditions: 48 hours
Text: as §1, §2

dct mRNA = assay: Quantitative PCR of dct mRNA in treated embryos; type: in vivo, zebrafish; conditions: qPCR
Text: (§4) We also carried out qPCR to measure the dct mRNA expression.

zebrafish embryos [6] = assay: Apoptosis labeling in compound-treated embryos; type: in vivo; conditions: fluorescence/enzymatic labeling
Text: FIGS. 7A-7B are photographs and an associated graph illustrating the cell death by skin lightening compounds. Embryos treated with skin lightening compounds were fixed and processed for enzymatic labeling for apoptosis.
Although it is rare, one compound MoTP was reported to cause cell death specifically in melanocyte. We tested whether other skin lightening compounds can also cause melanocyte cell death. Using a fluorescence labeling assay, we were able to detect the apoptotic cells. Although we were not able to specifically identify apoptotic melanocyte due to technical difficulties, we were able to evaluate the overall cell death in the compound treated embryos.

[7] = tested on: dct-expressing cells (melanocyte precursors); assay: In situ hybridization for dct-expressing cells; type: in vivo, zebrafish; conditions: cell counts
Text: The cDNA of these genes was cloned and used to generate anti-sense RNA probes.
as §4

zebrafish embryos [8] = assay: Pigment recovery after chemical withdrawal (Protocol 3); type: in vivo; conditions: treated 24-72 hpf, washed, imaged 24 hours after wash
Protocol: FIG. 4 are photographs of the pigment recovery after chemical withdrawal. Zebrafish embryos were treated with skin lightening compounds from 24-72 hpf followed by several washes to remove the compounds then incubated in […]. Twenty four hours after wash, the embryos were imaged.
Comparison of Skin-Lightening Compounds
It has been reported that melanin usually reappears after the withdrawal of skin lightening products. We studied this question by treating fish embryos from 24-72 hpf, according to Protocol 3, to create strong pigment reduction then wash off the compounds and track the pigment recovery. […] A drug with the ability to permanently remove or inhibit pigment might pose a concern of causing vitiligo.

| Compound | cell proliferation ([1]; concentration not given) | inhibition of pigment formation (zebrafish embryos [2]) | overall efficacy of the skin-lightening effects (rank order) (zebrafish embryos [2]) | tyrosinase inhibition [3] | reduction of existing pigment (zebrafish embryos [4]) | melanin synthesis / melanin amount ([5]; concentration not given) | dct mRNA expression (dct mRNA) | apoptosis / overall cell death in treated embryos (zebrafish embryos [6]) | number of dct+ cells [7] | pigment recovery after chemical withdrawal (zebrafish embryos [8]) | reduction of existing pigment (zebrafish embryos [4]; listed as Phenoxidiol) | cell proliferation ([1]; 100 mM) | apoptosis / overall cell death in treated embryos (zebrafish embryos [6]; listed as Niacinamide) | cell proliferation ([1]; 40 uM) | melanin synthesis / melanin amount ([5]; 10 uM) | melanin synthesis / melanin amount ([5]; 40 uM) |
| --- | --- | --- | --- | --- | --- | --- | --- | --- | --- | --- | --- | --- | --- | --- | --- | --- |
| O=c1cc(CO)occ1O [kojic acid] | significantly inhibit the melanocyte proliferation | different degrees of pigment inhibition | PTU=phenoxidiol=A11=MoTP>Arbutin>Niacinamide>Tretinoin>kojic acid>gallic acid | strong inhibition | minimal or no pigment reduction | significant reduction of melanin |  |  |  |  |  |  |  |  |  |  |
| Oc1ccc(C2=Cc3ccc(O)cc3OC2)cc1 [phenoxidiol, phenoxidiol/haginin] |  | strong pigmentation inhibition | PTU=phenoxidiol=A11=MoTP>Arbutin>Niacinamide>Tretinoin>kojic acid>gallic acid |  | strong in reducing existing pigment |  | significantly lower expression of dct expression; also recorded: reduction of dct expression | large increase of apoptosis; also recorded: significant apoptosis | fewer dct-positive cells; also recorded: significant lower number of dct+ cells | not so | strong reduction of existing pigment |  |  |  |  |  |
| OC[C@H]1O[C@@H](Oc2ccc(O)cc2)[C@H](O)[C@@H](O)[C@@H]1O [arbutin, Arbutin] |  | different degrees of pigment inhibition | PTU=phenoxidiol=A11=MoTP>Arbutin>Niacinamide>Tretinoin>kojic acid>gallic acid | strong inhibition | moderately reduce existing pigment | significant reduction of melanin | slightly increase of dct expression |  |  |  |  | significantly inhibit the melanocyte proliferation |  |  |  |  |
| NC(=S)Nc1ccccc1 [PTU, phenylthiourea] | didn't seem to have any effect on melanocyte proliferation | strong pigmentation inhibition | PTU=phenoxidiol=A11=MoTP>Arbutin>Niacinamide>Tretinoin>kojic acid>gallic acid | strong inhibition | moderately reduce existing pigment | significant reduction of melanin | slightly increase of dct expression |  | no effect on the number of dct expressing cells | not so |  |  |  |  |  |  |
| NC(=O)c1cccnc1 [niacinamide, Niacinamide] |  | different degrees of pigment inhibition | PTU=phenoxidiol=A11=MoTP>Arbutin>Niacinamide>Tretinoin>kojic acid>gallic acid |  |  | not |  | significant apoptosis |  |  |  |  | large increase of apoptosis |  |  |  |
| O=C(O)c1cc(O)c(O)c(O)c1 [gallic acid] |  | different degrees of pigment inhibition | PTU=phenoxidiol=A11=MoTP>Arbutin>Niacinamide>Tretinoin>kojic acid>gallic acid | enhancement of tyrosinase activity |  |  |  |  |  |  |  |  |  |  |  |  |
| (2-Morpholinobutyl)-4-thiophenol [MoTP] | killed all the melanoma cells; also recorded: significantly inhibit the melanocyte proliferation | strong pigmentation inhibition | PTU=phenoxidiol=A11=MoTP>Arbutin>Niacinamide>Tretinoin>kojic acid>gallic acid | enhancement of tyrosinase activity | moderately reduce existing pigment; also recorded: strong reduction of existing pigment |  |  | slightly higher level of apoptosis; also recorded: slight increase of apoptosis |  | limited recovery |  |  |  |  |  |  |
| COc1cc(O)cc(/C=C/Oc2ccccc2C)c1 [A11, 2-Methylphenyl-E-(3-hydroxy-5-methoxy)-styryl ether] |  | strong pigmentation inhibition | PTU=phenoxidiol=A11=MoTP>Arbutin>Niacinamide>Tretinoin>kojic acid>gallic acid | does not inhibit tyrosinase; also recorded: no inhibition at all | strong and quick pigment reduction; also recorded: strong in reducing existing pigment; also recorded: strong reduction of existing pigment |  | significantly lower expression of dct expression; also recorded: reduction of dct expression | no significant cell death | fewer dct-positive cells; also recorded: significant lower number of dct+ cells |  |  |  |  | slightly inhibited the melanoma cell proliferation; also recorded: significantly inhibit the melanocyte proliferation | no melanin reduction | slight reduction; also recorded: reduced |
| N#CC(=C(N)Sc1ccccc1N)C(C#N)=C(N)Sc1ccccc1N [MEK-I] | didn't seem to have any effect on melanocyte proliferation |  |  |  |  | not | no change in dct expression |  | no effect on the number of dct expressing cells and not |  |  |  |  |  |  |  |
| CC1=C(/C=C/C(C)=C/C=C/C(C)=C/C(=O)O)C(C)(C)CCC1 [tretinoin, Tretinoin] | didn't seem to have any effect on melanocyte proliferation | different degrees of pigment inhibition | PTU=phenoxidiol=A11=MoTP>Arbutin>Niacinamide>Tretinoin>kojic acid>gallic acid |  | minimal or no pigment reduction | significant reduction of melanin |  | significant apoptosis |  |  |  |  |  |  |  |  |

From US10112881B2, “Skin lightening compounds” (WiSys Technology Foundation, Inc., priority 2014, dated 2018)
